Measurements: patent US5462725A, “2-pyridylmethylenepolyazamacrocyclophosphonic acids, complexes and derivatives thereof, for use as contrast agents” (priority 1993, dated 1995)
Like-named read-outs stand apart in the source and are kept apart here.

Legend:
[1] = Biodistribution of 153Sm complex after tail vein injection; format: in vivo, Sprague Dawley rats; settings: rat, i.v. tail vein; for % INJECTED DOSE, Blood: blood assumed 6.5% of body weight; for % INJECTED DOSE, Bone: femur x 25; for % INJECTED DOSE, Muscle: muscle assumed 43% of body weight
Description: Sprague Dawley rats were allowed to acclimate for five days then injected with 100 μL of the complex solution via a tail vein. The rats weighed between 150 and 200 g at the time of injection. After 30 min. the rats were killed by cervical dislocation and dissected. The amount of radioactivity in each tissue was determined by counting in a NaI scintillation counter coupled to a multichannel analyzer. The counts were compared to the counts in 100 μL standards in order to determine the percentage of the dose in each tissue or organ.
The percent dose in blood was estimated assuming blood to be 6.5% of the total body weight. The percent dose in bone was estimated by multiplying the percent dose in the femur by 25. The percent dose in muscle was estimated assuming muscle to be 43% of the total body weight. The number of rats used in the average is n.
In addition to organ biodistribution, chelates of the compounds of Formula (I) were evaluated for efficiency of bone localization since phosphonates are known for their ability to bind to hydroxyapatite.
When the complex ^153 Sm[N-(2-pyridylmethyl)-N',N",N'"-tris(methylenephosphonic acid ethyl ester)-1,4,7,10-tetraazacyclododecane] The numbers represent the average of a minimum of 2 rats per data point at 2 hours post injection.
When the complex ^153 Sm[N-(2-pyridylmethyl)-N',N",N'"-tris(methylenephosphonic acid propyl ester)-1,4,7,10-tetraazacyclododecane] The numbers represent the average of a minimum of 3 rats per data point at 2 and 24 hours post injection.

[2] = in vivo; cited from earlier work
[3] = background; cited from earlier work
[4] = background; cited from earlier work; remark: listed apart in the source

Row | Compound | % Complex (pH 1) [%] | % Complex (pH 3) [%] | % Complex (pH 5) [%] | % Complex (pH 7) [%] | % Complex (pH 9) [%] | % Complex (pH 11) [%] | % Complex (pH 14) [%] | % INJECTED DOSE, Brain ([1]; 2 hours post injection) [% INJECTED DOSE] | % INJECTED DOSE, Heart ([1]; 2 hours post injection) [% INJECTED DOSE] | % INJECTED DOSE, Kidney ([1]; 2 hours post injection) [% INJECTED DOSE] | % INJECTED DOSE, Liver ([1]; 2 hours post injection) [% INJECTED DOSE] | % INJECTED DOSE, Lung ([1]; 2 hours post injection) [% INJECTED DOSE] | % INJECTED DOSE, Spleen ([1]; 2 hours post injection) [% INJECTED DOSE] | % INJECTED DOSE, Urine ([1]; 2 hours post injection) [% INJECTED DOSE] | % INJECTED DOSE, Blood ([1]; 2 hours post injection) [% INJECTED DOSE] | % INJECTED DOSE, Bone ([1]; 2 hours post injection) [% INJECTED DOSE] | % INJECTED DOSE, Muscle ([1]; 2 hours post injection) [% INJECTED DOSE] | distribution and elimination [2] | side effects / toxicity [3] | other results
1 | CCCOP(=O)([O-])CN1CCN(Cc2ccccn2)CCN(CP(=O)([O-])OCCC)CCN(CP(=O)([O-])OCCC)CC1.[153Sm+3] [^153 Sm-PD3PP, ^153 Sm[N-(2-pyridylmethyl)-N',N",N'"-tris(methylenephosphonic acid propyl ester)-1,4,7,10-tetraazacyclododecane]] | 72.52 | 87.56 | 92.99 | 95.06 | 95.22 | 92.74 | 87.65 | 0.04 | 0.04 | 0.86 | 20.36 | 0.20 | 1.19 | 50.00 | 0.68 | 5.93 | 0.82 |  |  | % INJECTED DOSE, Large Intestine ([1]; 2 hours post injection): 0.18 % INJECTED DOSE; % INJECTED DOSE, Small intestine ([1]; 2 hours post injection): 13.56 % INJECTED DOSE; % INJECTED DOSE, Stomach ([1]; 2 hours post injection): 1.39 % INJECTED DOSE; % INJECTED DOSE, Brain ([1]; 24 hours post injection): 0.00 % INJECTED DOSE; % INJECTED DOSE, Feces ([1]; 24 hours post injection): 5.33 % INJECTED DOSE; % INJECTED DOSE, Heart ([1]; 24 hours post injection): 0.02 % INJECTED DOSE; % INJECTED DOSE, Kidney ([1]; 24 hours post injection): 0.89 % INJECTED DOSE; % INJECTED DOSE, Large Intestine ([1]; 24 hours post injection): 0.16 % INJECTED DOSE; % INJECTED DOSE, Liver ([1]; 24 hours post injection): 2.31 % INJECTED DOSE; % INJECTED DOSE, Lung ([1]; 24 hours post injection): 0.40 % INJECTED DOSE; % INJECTED DOSE, Small intestine ([1]; 24 hours post injection): 0.13 % INJECTED DOSE; % INJECTED DOSE, Spleen ([1]; 24 hours post injection): 0.22 % INJECTED DOSE; % INJECTED DOSE, Stomach ([1]; 24 hours post injection): 0.04 % INJECTED DOSE; % INJECTED DOSE, Urine ([1]; 24 hours post injection): 83.00 % INJECTED DOSE; % INJECTED DOSE, Blood ([1]; 24 hours post injection): 0.03 % INJECTED DOSE; % INJECTED DOSE, Bone ([1]; 24 hours post injection): 12.39 % INJECTED DOSE; % INJECTED DOSE, Muscle ([1]; 24 hours post injection): 0.27 % INJECTED DOSE
2 | CNC[C@H](O)[C@@H](O)[C@H](O)[C@H](O)CO.CNC[C@H](O)[C@@H](O)[C@H](O)[C@H](O)CO.O=C([O-])CN(CCN(CC(=O)[O-])CC(=O)O)CCN(CC(=O)[O-])CC(=O)O.[Gd+3] [Magnevist™, complex of gadolinium with diethylenetriaminepentaacetic acid] |  |  |  |  |  |  |  |  |  |  |  |  |  |  |  |  |  | freely distribute in extracellular fluid followed by efficient elimination through the renal system |  | 
3 | CC(O)CN1CCN(CC(=O)[O-])CCN(CC(=O)[O-])CCN(CC(=O)[O-])CC1.[Gd+3] (stereo not drawn) [Prohance™, [1,4,7-tris(carboxymethyl)-10-(2-hydroxypropyl)-1,4,7,10-tetraazacyclododecanato]gadolinium] |  |  |  |  |  |  |  |  |  |  |  |  |  |  |  |  |  | freely distribute in extracellular fluid followed by efficient elimination through the renal system | fewer side effects than Magnevist™ | kinetic stability of DO3A derivative chelates [4]: gains added kinetic stability by virtue of a pendant hydroxyl moiety
4 | [Cl][Gd]([Cl])[Cl] [GdCl3] |  |  |  |  |  |  |  |  |  |  |  |  |  |  |  |  |  |  | toxic to an animal | 
5 | O=C([O-])CN1CCN(CC(=O)[O-])CCN(Cc2ccccn2)CCN(CC(=O)[O-])CC1.[153Sm+3] [^153 Sm-PD3A] | 98.30 |  |  | 99.86 | 99.86 | 99.80 | 99.96 |  |  |  |  |  |  |  |  |  |  |  |  | % Complex (pH 2): 99.38%; % Complex (pH 4): 99.62%
6 | CCOP(=O)([O-])CN1CCN(Cc2ccccn2)CCN(CP(=O)([O-])OCC)CCN(CP(=O)([O-])OCC)CC1.[153Sm+3] [^153 Sm-PD3EP, ^153 Sm[N-(2-pyridylmethyl)-N',N",N'"-tris(methylenephosphonic acid ethyl ester)-1,4,7,10-tetraazacyclododecane]] | 78.95 | 93.80 | 93.02 | 93.77 | 95.89 | 95.77 | 94.07 | 0.01 | 0.01 | 1.24 | 0.36 | 0.02 | 0.01 | 97.00 | 0.45 | 0.82 | 0.62 |  |  | 
